Molecules are shown by their SMILES. Counter-ions that a name gives are not always drawn.

One assay addresses T1, Human VAP-1 enzyme (Homo sapiens, UniProt Q16853).
T1 construct: purchased R&D Systems, Inc
T1 sequence (Q16853 1-763): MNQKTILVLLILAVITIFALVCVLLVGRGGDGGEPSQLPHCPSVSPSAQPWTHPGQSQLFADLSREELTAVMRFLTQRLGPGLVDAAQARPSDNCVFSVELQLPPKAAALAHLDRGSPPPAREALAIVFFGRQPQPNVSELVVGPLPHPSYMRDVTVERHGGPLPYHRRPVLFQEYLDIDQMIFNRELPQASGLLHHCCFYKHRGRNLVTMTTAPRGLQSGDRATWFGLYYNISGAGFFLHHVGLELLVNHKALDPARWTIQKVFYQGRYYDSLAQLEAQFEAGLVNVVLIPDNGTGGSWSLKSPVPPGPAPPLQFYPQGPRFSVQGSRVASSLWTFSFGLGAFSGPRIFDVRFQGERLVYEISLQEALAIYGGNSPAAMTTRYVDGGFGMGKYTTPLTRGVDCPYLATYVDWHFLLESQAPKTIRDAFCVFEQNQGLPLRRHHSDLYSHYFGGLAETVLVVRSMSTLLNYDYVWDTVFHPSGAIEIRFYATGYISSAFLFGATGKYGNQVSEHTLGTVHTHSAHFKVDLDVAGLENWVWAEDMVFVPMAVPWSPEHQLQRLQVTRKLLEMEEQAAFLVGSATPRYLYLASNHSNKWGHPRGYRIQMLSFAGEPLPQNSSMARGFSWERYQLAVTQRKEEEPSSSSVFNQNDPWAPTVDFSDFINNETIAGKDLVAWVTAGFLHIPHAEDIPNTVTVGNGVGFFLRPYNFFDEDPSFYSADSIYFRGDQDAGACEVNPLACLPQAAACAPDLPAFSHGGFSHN
The assay is described as follows: Human VAP-1 enzyme inhibition test. Type of assay: biochemical. As to conditions: 1 h; compound 30 nM; 14C-benzylamine 100 μM; read-out: inhibition ratio (human VAP-1 enzyme). An outline of the steps: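 Recombinant human VAP-1 pre-incubated 20 min at room temperature with compound in DMSO, then reacted with 14C-benzylamine (100 μM final) 1 h at 37 °C. Citric acid stop; oxidized product extracted into toluene/ethyl acetate and counted by liquid scintillation. Inhibition ratio relative to DMSO-only activity.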

The next assay addresses T2, Rat Plasma VAP-1 (Rattus norvegicus, UniProt O08590).
T2 construct: from tissue; host or cells: plasma of SD male rats (7-12 weeks old) after oral dosing
T2 sequence (O08590 28-763 limits assumed): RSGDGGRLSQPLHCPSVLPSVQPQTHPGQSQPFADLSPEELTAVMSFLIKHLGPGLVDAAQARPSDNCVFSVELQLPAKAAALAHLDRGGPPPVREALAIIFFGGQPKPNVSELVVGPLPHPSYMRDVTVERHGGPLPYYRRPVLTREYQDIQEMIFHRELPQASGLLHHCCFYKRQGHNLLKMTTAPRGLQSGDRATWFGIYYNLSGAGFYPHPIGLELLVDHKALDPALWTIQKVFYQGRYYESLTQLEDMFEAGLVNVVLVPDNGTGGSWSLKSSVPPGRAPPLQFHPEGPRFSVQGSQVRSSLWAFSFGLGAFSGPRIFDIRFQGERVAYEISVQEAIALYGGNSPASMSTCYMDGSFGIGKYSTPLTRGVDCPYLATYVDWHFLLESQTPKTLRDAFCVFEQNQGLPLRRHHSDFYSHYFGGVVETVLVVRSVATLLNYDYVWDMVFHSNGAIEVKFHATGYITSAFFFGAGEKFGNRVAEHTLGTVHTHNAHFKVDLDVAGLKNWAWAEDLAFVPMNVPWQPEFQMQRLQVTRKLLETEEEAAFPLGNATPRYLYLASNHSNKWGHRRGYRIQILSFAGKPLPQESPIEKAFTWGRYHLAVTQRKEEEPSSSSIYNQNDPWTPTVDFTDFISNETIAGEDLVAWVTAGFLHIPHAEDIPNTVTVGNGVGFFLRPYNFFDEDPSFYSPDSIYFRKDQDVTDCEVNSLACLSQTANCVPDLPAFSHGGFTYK
The assay can be described thus: (Ex vivo) rat plasma VAP-1 inhibition test after oral administration of the compound. As to conditions: 3 hours after oral administration, SD male rats, read-out: inhibition ratio (plasma VAP-1, ex vivo). Type of assay: in vivo. How it is done: (Ex Vivo) Rat Plasma VAP-1 Inhibition Test after Oral Administration of the Compound
The compound was orally administered (0.3-10 mg/kg) to 7-12 week old SD male rats in the non-fasting state. Under anesthesia, the blood was collected in heparin tubes from the jugular vein before the administration and 3, 8 and 24 hours after the administration. The blood was centrifuged at 14000 rpm for 10 minutes to get plasma. The VAP-1 enzyme activity in the plasma was measured by radiochemical enzyme assay.
The radiochemical enzyme assay was conducted by modifying the method of P. H. Yu et al. (Diabetologia 40 1243 (1997)). ^14C-benzylamine (2.5 μM) was added to the obtained plasma, and was incubated at 37° C. for 3 hours. The reaction was terminated by the addition of 100 μL of 2 M citric acid solution to the reaction solution. The oxidative product was extracted using a toluene/ethyl acetate mixture and the radioactivity was measured with a liquid scintillation counter. The inhibition ratio of the compound was calculated using the following equation. Inhibition ratio={1−[Plasma VAP-1 activity after administration of the compound]/[Plasma VAP-1 activity before administration]}×100

As to `N=C(N)NC(=O)OCc1cccc(-c2cnc(N3CC(=NOCCC(O)CO)C3)nc2)c1F` (stereo not drawn) [Example 94, 3-(2-{3-[(3,4-Dihydroxybutoxy)imino]azetidin-1-yl}pyrimidin-5-yl)-2-fluorobenzyl carbamimidoylcarbamate], the inhibition at 0.03 µM at Human VAP-1 enzyme is at least 50%. In addition, the inhibition in vivo at 0.3 mg/kg at Rat Plasma VAP-1 is at least 50%.

In the case of `N=C(N)NC(=O)OCc1cccc(-c2cnc(N3CCC(=NOCC(CO)CO)CC3)nc2)c1F` [Example 97, 2-Fluoro-3-[2-(4-{[3-hydroxy-2-(hydroxymethyl)propoxy]imino}piperidin-1-yl)pyrimidin-5-yl]benzyl carbamimidoylcarbamate], on Human VAP-1 enzyme, the inhibition at 0.03 µM is at least 50%. Further, the inhibition in vivo at 0.3 mg/kg on Rat Plasma VAP-1 is at least 50%.

`CC(CO)(CO)CON=C1CCN(c2ncc(-c3cccc(COC(=O)NC(=N)N)c3F)cn2)CC1` [Example 98, 2-Fluoro-3-[2-(4-{[3-hydroxy-2-(hydroxymethyl)-2-methylpropoxy]imino}piperidin-1-yl)pyrimidin-5-yl]benzyl carbamimidoylcarbamate]: on Human VAP-1 enzyme, the inhibition at 0.03 µM is at least 50%. Also, the inhibition in vivo at 0.3 mg/kg on Rat Plasma VAP-1 was at least 50%.

As for `N=C(N)NC(=O)OCc1cccc(-c2cnc(N3CCC(=NOCC(O)CO)CC3)nc2)c1F` (stereo not drawn) [Example 99, 3-(2-{4-[(2,3-Dihydroxypropoxy)imino]piperidin-1-yl}pyrimidin-5-yl)-2-fluorobenzyl carbamimidoylcarbamate], at Human VAP-1 enzyme, the inhibition at 0.03 µM was at least 50%. In addition, the inhibition in vivo at 0.3 mg/kg on Rat Plasma VAP-1 is at least 50%.

Turning to `COC(CO)CON=C1CN(c2ncc(-c3cccc(COC(=O)NC(=N)N)c3F)cn2)C1` (stereo not drawn) [Example 101, 2-Fluoro-3-(2-{3-[(3-hydroxy-2-methoxypropoxy)imino]azetidin-1-yl}pyrimidin-5-yl)benzyl carbamimidoylcarbamate], on Human VAP-1 enzyme, the inhibition at 0.03 µM was at least 50%. The inhibition in vivo at 0.3 mg/kg on Rat Plasma VAP-1 is at least 50%.

Consider `N=C(N)NC(=O)OCc1cccc(-c2cnc(N3CCC(=NO)CC3)nc2)c1F` [Example 105, 2-Fluoro-3-{2-[4-(hydroxyimino)piperidin-1-yl]pyrimidin-5-yl}benzyl carbamimidoylcarbamate hydrochloride], for which, at Human VAP-1 enzyme, the inhibition at 0.03 µM is at least 50%. Moreover, the inhibition in vivo at 0.3 mg/kg on Rat Plasma VAP-1 was at least 50%.

For the molecule `N=C(N)NC(=O)OCc1cccc(-c2cnc(N3CCC(=NOCCC(N)=O)CC3)nc2)c1F` [Example 150, 3-(2-{4-[(3-Amino-3-oxopropoxy)imino]piperidin-1-yl}pyrimidin-5-yl)-2-fluorobenzyl carbamimidoylcarbamate], the inhibition at 0.03 µM on Human VAP-1 enzyme is at least 50%. The inhibition in vivo at 0.3 mg/kg at Rat Plasma VAP-1 is at least 50%.

Consider `CNC(=O)CCON=C1CCN(c2ncc(-c3cccc(COC(=O)NC(=N)N)c3F)cn2)CC1` [Example 151, 2-Fluoro-3-[2-(4-{[3-(methylamino)-3-oxopropoxy]imino}piperidin-1-yl)pyrimidin-5-yl]benzyl carbamimidoylcarbamate], for which, at Human VAP-1 enzyme, the inhibition at 0.03 µM is at least 50%. In addition, the inhibition in vivo at 0.3 mg/kg on Rat Plasma VAP-1 was at least 50%.

`N=C(N)NC(=O)OCc1cccc(-c2cnc(N3CCC(=NOCCCC(=O)O)CC3)nc2)c1F` [Example 153, 4-[({1-[5-(3-{[(Carbamimidoylcarbamoyl)oxy]methyl}-2-fluorophenyl)pyrimidin-2-yl]piperidin-4-ylidene}amino)oxy]butanoic acid]: the inhibition at 0.03 µM at Human VAP-1 enzyme is at least 50%. Moreover, the inhibition in vivo at 0.3 mg/kg on Rat Plasma VAP-1 was at least 50%.

`CN(C)C(=O)CCON=C1CCN(c2ncc(-c3cccc(COC(=O)NC(=N)N)c3F)cn2)CC1` [Example 154, 3-[2-(4-{[3-(Dimethylamino)-3-oxopropoxy]imino}piperidin-1-yl)pyrimidin-5-yl]-2-fluorobenzyl carbamimidoylcarbamate]: the inhibition at 0.03 µM at Human VAP-1 enzyme is at least 50%. At Rat Plasma VAP-1, the inhibition in vivo at 0.3 mg/kg is at least 50%.

As for `CC(=O)NCCON=C1CCN(c2ncc(-c3cccc(COC(=O)NC(=N)N)c3F)cn2)CC1` [Example 155, 3-(2-{4-[(2-Acetamidoethoxy)imino]piperidin-1-yl}pyrimidin-5-yl)-2-fluorobenzyl carbamimidoylcarbamate], the inhibition at 0.03 µM at Human VAP-1 enzyme was at least 50%. For the same molecule, on Rat Plasma VAP-1, the inhibition in vivo at 0.3 mg/kg was at least 50%.

Consider `CC(=O)N(C)CCON=C1CCN(c2ncc(-c3cccc(COC(=O)NC(=N)N)c3F)cn2)CC1` [Example 156, 2-Fluoro-3-[2-(4-{[2-(N-methylacetamido)ethoxy]imino}piperidin-1-yl)pyrimidin-5-yl]benzyl carbamimidoylcarbamate], for which the inhibition at 0.03 µM on Human VAP-1 enzyme is at least 50%. For the same molecule, the inhibition in vivo at 0.3 mg/kg at Rat Plasma VAP-1 was at least 50%.

As to `CS(=O)(=O)NCCON=C1CCN(c2ncc(-c3cccc(COC(=O)NC(=N)N)c3F)cn2)CC1` [Example 159, 2-Fluoro-3-[2-(4-{[2-(methylsulfonamido)ethoxy]imino}piperidin-1-yl)pyrimidin-5-yl]benzyl carbamimidoylcarbamate], the inhibition at 0.03 µM at Human VAP-1 enzyme was at least 50%. On Rat Plasma VAP-1, the inhibition in vivo at 0.3 mg/kg was at least 50%.

Take `N#CCCON=C1CCN(c2ncc(-c3cccc(COC(=O)NC(=N)N)c3F)cn2)CC1` [Example 165, 3-(2-{4-[(2-Cyanoethoxy)imino]piperidin-1-yl}pyrimidin-5-yl)-2-fluorobenzyl carbamimidoylcarbamate]: the inhibition at 0.03 µM on Human VAP-1 enzyme was at least 50%. For the same molecule, the inhibition in vivo at 0.3 mg/kg at Rat Plasma VAP-1 is at least 50%.

For `N#CCCCON=C1CCN(c2ncc(-c3cccc(COC(=O)NC(=N)N)c3F)cn2)CC1` [Example 166, 3-(2-{4-[(3-Cyanopropoxy)imino]piperidin-1-yl}pyrimidin-5-yl)-2-fluorobenzyl carbamimidoylcarbamate], the inhibition at 0.03 µM at Human VAP-1 enzyme is at least 50%. For the same molecule, the inhibition in vivo at 0.3 mg/kg on Rat Plasma VAP-1 is at least 50%.

For the molecule `CS(=O)(=O)CCON=C1CCN(c2ncc(-c3cccc(COC(=O)NC(=N)N)c3F)cn2)CC1` [Example 167, 2-Fluoro-3-[2-(4-{[2-(methylsulfonyl)ethoxy]imino}piperidin-1-yl)pyrimidin-5-yl]benzyl carbamimidoylcarbamate], the inhibition at 0.03 µM at Human VAP-1 enzyme was at least 50%. Besides, the inhibition in vivo at 0.3 mg/kg on Rat Plasma VAP-1 is at least 50%.

Consider `CS(=O)(=O)CCCON=C1CCN(c2ncc(-c3cccc(COC(=O)NC(=N)N)c3F)cn2)CC1` [Example 168, 2-Fluoro-3-[2-(4-{[3-(methylsulfonyl)propoxy]imino}piperidin-1-yl)pyrimidin-5-yl]benzyl carbamimidoylcarbamate], for which, at Human VAP-1 enzyme, the inhibition at 0.03 µM is at least 50%. Further, on Rat Plasma VAP-1, the inhibition in vivo at 0.3 mg/kg was at least 50%.

As for `Cn1ccc(CON=C2CCN(c3ncc(-c4cccc(COC(=O)NC(=N)N)c4F)cn3)CC2)n1` [Example 169, 2-Fluoro-3-[2-(4-{[(1-methyl-1H-pyrazol-3-yl)methoxy]imino}piperidin-1-yl)pyrimidin-5-yl]benzyl carbamimidoylcarbamate], the inhibition at 0.03 µM at Human VAP-1 enzyme was at least 50%. Further, the inhibition in vivo at 0.3 mg/kg on Rat Plasma VAP-1 was at least 50%.

For the origin of these results see US10759781B2, “Substituted guanidine derivatives” (UBE INDUSTRIES, LTD., priority 2015, dated 2020).
